In patent publication US4277498A, “Amides” (Burroughs Wellcome Co., priority 1976, dated 1981):
Counter-ions that a name gives are not always drawn. Like-named read-outs stand apart in the source and are kept apart here.

Tests used:
[1] = Anti-tetrabenazine test (ptosis and sedation), Example 37; format: in vivo, Female albino mice; details: Mus musculus, po
Protocol: Female albino mice were grouped, six per cage. Compounds of formula (I) as the respective salt in saline solution were administered orally, thirty minutes prior to the administration of tetrabenazine, 50 mg/kg, i.p. The animals were scored according to the method of V. G. Vernier, H. M. Hanson and C. A. Stone: Psychosomatic medicine, ch.

[2] = tetrabenazine-induced sedation test in the rat (general statements on antidepressant activity); format: in vivo; details: acceptable salts
in vivo = details: mouse, po, mice, p.o. as salt in saline, deaths within two days
Protocol: Several groups of mice were treated with specific doses of compounds of formula (I) as orally administered salts in saline solution. After treatment of each group with a different dose of a specific compound the number of mice dead in each group within two days was noted. […] The LD50 value is the lethal dose required to kill half of the treated animals.
The procedure was repeated with other groups of mice for other compounds of formula (I).

[3] = ptosis, mice, p.o. as salt in saline, 30 min before tetrabenazine 50 mg/kg i.p., read-out: Anti-depressant activity, approx. ED50 values, p.o., Ptosis
[4] = sedation, mice, p.o. as salt in saline, 30 min before tetrabenazine 50 mg/kg i.p., read-out: Anti-depressant activity, approx. ED50 values, p.o., Sedation

Row | SMILES | ED50 [1, 3] [mg/kg] | ED50 [1, 4] [mg/kg] | LD50 at 48 h (in vivo) [mg/kg] | other results
1 | CC(CC1CCCCC1)NC(=O)CN (racemic) [Example 9, hydrogen fumarate, (±)-2-Amino-N-(2-cyclohexyl)-1-methylethyl)acetamide hydrogen fumarate] | ~6 | ~7.5 | – | –
2 | CC(C)CCCC(C)(C)NC(=O)CN [2-amino-N-(1,1,5-trimethylhexyl)acetamide] | – | – | – | antidepressant activity in the tetrabenazine-induced sedation test [2]: have shown antidepressant activity
3 | CCCCCC(C)NC(=O)CN (stereo not drawn) [2-amino-N-(1-methylhexyl)acetamide] | – | – | – | antidepressant activity in the tetrabenazine-induced sedation test [2]: have shown antidepressant activity
4 | CC(C)(CC1CCCC1)NC(=O)CN [2-amino-N-(2-cyclopentyl-1,1-dimethylethyl)acetamide] | – | – | – | antidepressant activity in the tetrabenazine-induced sedation test [2]: have shown antidepressant activity
5 | CCCCCC(C)(C)NC(=O)CN [Example 2, hydrogen oxalate, 2-amino-N-(1,1-dimethylhexyl)acetamide] | ~3.5 | ~2.3 | – | –
6 | CC1(NC(=O)CN)CCCCC1 [Example 3, hydrogen oxalate, 2-Amino-N-(1-methylcyclohexyl)acetamide] | ~6.92 | ~5.69 | > 2000 | –
7 | CC1(NC(=O)CN)CCCCCC1 [Example 4, hydrogen oxalate, 2-Amino-N-(1-methylcycloheptyl)acetamide] | ~5 | ~10.6 | 1110 | –
8 | CCCCC(C)(C)NC(=O)CN.O=C(O)C(=O)O [Example 5, hydrogen oxalate, 2-amino-N-(1,1-dimethylpentyl)acetamide hydrogen oxalate] | ~20 | ~10 | 536 | –
9 | CCCC(C)CC(C)(C)NC(=O)CN (stereo not drawn) [Example 6, hydrogen fumarate, 2-amino-N-(1,1,3-trimethylhexyl)acetamide] | ~18.7 | ~9.5 | – | –
10 | CCCCCCC(C)(C)NC(=O)CN [Example 7, hydrogen fumarate, 2-Amino-N-(1,1-dimethylheptyl)acetamide] | – | – | 1000 | –
11 | CCCCCC(C)NC(=O)CN.O=C(O)CCC(=O)O (stereo not drawn) [Example 8, hydrogen succinate, 2-Amino-N-(1-methylhexyl)acetamide hydrogen succinate] | ~3.8 | ~2.7 | 500 | –
12 | CC(C)(CC1CCCC1)NC(=O)CN.CCO.O=C(O)/C=C/C(=O)O [Example 11, hydrogen fumarate, 2-Amino-N-(1,1-dimethyl-2-cyclopentylethyl)acetamide hydrogen fumarate monoethanolate] | – | – | 575 | ED50 ([1]; read-out: Anti-depressant activity, approx. ED50 values, p.o., Ptosis): ~5 mg/kg; ED50 ([1]; read-out: Anti-depressant activity, approx. ED50 values, p.o., Sedation): ~5 mg/kg
13 | CC(C)CCCC(C)(C)NC(=O)CN [Example 12, hydrogen succinate, 2-amino-N-(1,1,5-trimethylhexyl)acetamide] | ~8 | ~2.5 | – | –
